Test results as given in PubChem BioAssay (NCI).
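The compound was tested at five concentrations on cells cultured in 96-well plates, with a 48-hour exposure period. At the GI50, growth is halved. TGI marks complete inhibition of growth.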

Experiments:
Assay in all cases: DTP human tumour cell line panel, 48 h; in the data active means GI50 below about 0.43 µM; inactive means the rest
[1] = tested on: MOLT-4 leukemia
[2] = tested on: TK-10 renal
[3] = tested on: SR leukemia
[4] = tested on: SN12C renal
[5] = tested on: SNB-19 CNS
[6] = tested on: NCI-H522 lung
[7] = tested on: UACC-257 melanoma
[8] = tested on: NCI-H460 lung
[9] = tested on: A498 renal
[10] = tested on: DU-145 prostate
[11] = tested on: M14 melanoma
[12] = tested on: UO-31 renal
[13] = tested on: BT-549 breast
[14] = tested on: SK-OV-3 ovarian
[15] = tested on: NCI/ADR-RES ovarian
[16] = tested on: SF-539 CNS
[17] = tested on: OVCAR-4 ovarian
[18] = tested on: SK-MEL-28 melanoma
[19] = tested on: HOP-62 NSCLC
[20] = tested on: RXF 393 renal
[21] = tested on: SK-MEL-2 melanoma
[22] = tested on: NCI-H226 lung
[23] = tested on: KM12 colon
[24] = tested on: MDA-MB-435
[25] = tested on: PC-3 prostate
[26] = tested on: HOP-92 NSCLC
[27] = tested on: SK-MEL-5 melanoma
[28] = tested on: 786-0 renal
[29] = tested on: COLO 205 colon
[30] = tested on: IGROV1 ovarian
[31] = tested on: CAKI-1 renal
[32] = tested on: ACHN renal
[33] = tested on: HCC-2998 colon
[34] = tested on: UACC-62 melanoma
[35] = tested on: RPMI-8226 leukemia
[36] = tested on: HT29 colon
[37] = tested on: MDA-MB-231 breast
[38] = tested on: OVCAR-5 ovarian
[39] = tested on: MCF7 breast
[40] = tested on: HL-60(TB) leukemia
[41] = tested on: SF-268 CNS
[42] = tested on: LOX IMVI melanoma
[43] = tested on: OVCAR-3 ovarian
[44] = tested on: U251 CNS
[45] = tested on: SF-295 CNS
[46] = tested on: T-47D breast
[47] = tested on: SNB-75 CNS
[48] = tested on: CCRF-CEM leukemia
[49] = tested on: OVCAR-8 ovarian
[50] = tested on: SW-620 colon
[51] = tested on: MALME-3M melanoma
[52] = tested on: HCT-15 colon
[53] = tested on: HCT-116 colon
[54] = tested on: NCI-H23 lung
[55] = tested on: HS 578T breast
[56] = tested on: K-562 leukemia
[57] = tested on: A549 NSCLC

Cn1c(-c2ccncc2)c(-c2ccc(F)cc2)c2ncccc21
inactive: GI50 [1] > 25 µM | GI50 [2] 16.4 µM | GI50 [3] > 25 µM | GI50 [4] > 25 µM | GI50 [5] > 25 µM | GI50 [6] > 25 µM | GI50 [7] > 25 µM | GI50 [8] > 25 µM | GI50 [9] > 14.4 µM | GI50 [10] > 25 µM | GI50 [11] > 25 µM | GI50 [12] 10.8 µM | GI50 [13] > 25 µM | GI50 [14] > 25 µM | GI50 [15] > 25 µM | GI50 [16] > 25 µM | GI50 [17] > 25 µM | GI50 [18] > 25 µM | GI50 [19] > 25 µM | GI50 [20] > 25 µM | GI50 [21] > 25 µM | GI50 [22] > 25 µM | GI50 [23] > 25 µM | GI50 [24] > 25 µM | GI50 [25] > 25 µM | GI50 [26] 7.39 µM | GI50 [27] > 25 µM | GI50 [28] > 25 µM | GI50 [29] > 25 µM | GI50 [30] > 23.1 µM | GI50 [31] > 25 µM | GI50 [32] 16.4 µM | GI50 [33] > 25 µM | GI50 [34] > 25 µM | GI50 [35] > 25 µM | GI50 [36] > 25 µM | GI50 [37] > 25 µM | GI50 [38] > 25 µM | GI50 [39] > 25 µM | GI50 [40] > 25 µM | GI50 [41] > 25 µM | GI50 [42] > 25 µM | GI50 [43] > 25 µM | GI50 [44] > 25 µM | GI50 [45] > 25 µM | GI50 [46] > 25 µM | GI50 [47] > 25 µM | GI50 [48] > 25 µM | GI50 [49] > 25 µM | GI50 [50] > 25 µM | GI50 [51] > 25 µM | GI50 [52] > 25 µM | GI50 [53] > 25 µM | GI50 [54] > 25 µM | GI50 [55] > 25 µM | GI50 [56] > 25 µM | GI50 [57] > 25 µM
> 25 µM: TGI [1] | TGI [2] | TGI [3] | TGI [4] | TGI [5] | TGI [6] | TGI [7] | TGI [8] | TGI [9] | TGI [10] | TGI [11] | TGI [12] | TGI [13] | TGI [14] | TGI [15] | TGI [16] | TGI [17] | TGI [18] | TGI [19] | TGI [20] | TGI [21] | TGI [22] | TGI [23] | TGI [24] | TGI [25] | TGI [26] | TGI [27] | TGI [28] | TGI [29] | TGI [30] | TGI [31] | TGI [32] | TGI [33] | TGI [34] | TGI [35] | TGI [36] | TGI [37] | TGI [38] | TGI [39] | TGI [40] | TGI [41] | TGI [42] | TGI [43] | TGI [44] | TGI [45] | TGI [46] | TGI [47] | TGI [48] | TGI [49] | TGI [50] | TGI [51] | TGI [52] | TGI [53] | TGI [54] | TGI [55] | TGI [56] | TGI [57]

Nc1c(C(=O)Nc2cccc(C(F)(F)F)c2)sc2nc3c(cc12)C(O)CCC3 (stereo not drawn)
active: GI50 [24] 0.322 µM
> 57.9 µM: TGI [10]
> 81.6 µM: TGI [27]
> 68.4 µM: TGI [32]
27.7 µM: TGI [9]
inactive: GI50 [1] 6.7 µM | GI50 [2] 11.8 µM | GI50 [3] 0.61 µM | GI50 [4] 11.1 µM | GI50 [5] 14.4 µM | GI50 [6] 12.7 µM | GI50 [7] > 26.2 µM | GI50 [8] 4.55 µM | GI50 [9] 0.872 µM | GI50 [10] 5.44 µM | GI50 [11] 3.18 µM | GI50 [12] 32.2 µM | GI50 [13] 7.27 µM | GI50 [14] 15.3 µM | GI50 [15] 6.14 µM | GI50 [16] 4 µM | GI50 [17] 3.46 µM | GI50 [18] 6.42 µM | GI50 [19] 6.82 µM | GI50 [20] 5.65 µM | GI50 [21] 6.69 µM | GI50 [22] 10.8 µM | GI50 [23] 3.28 µM | GI50 [25] 4.02 µM | GI50 [26] 3.31 µM | GI50 [27] 3.59 µM | GI50 [28] 13.7 µM | GI50 [29] 3.79 µM | GI50 [30] 14.1 µM | GI50 [31] 9.52 µM | GI50 [32] 10.1 µM | GI50 [33] > 61.2 µM | GI50 [34] 3.2 µM | GI50 [35] 4.26 µM | GI50 [36] 3.35 µM | GI50 [37] 12.2 µM | GI50 [38] > 50 µM | GI50 [39] 1.39 µM | GI50 [40] 3.22 µM | GI50 [41] 6.07 µM | GI50 [42] 5.68 µM | GI50 [43] 4.27 µM | GI50 [44] 6.05 µM | GI50 [45] 3.07 µM | GI50 [46] 8.69 µM | GI50 [47] 3.47 µM | GI50 [48] 3.4 µM | GI50 [49] 9.66 µM | GI50 [50] 2.73 µM | GI50 [51] 6.72 µM | GI50 [52] 1.93 µM | GI50 [53] 3.02 µM | GI50 [54] 15.2 µM | GI50 [55] 6.23 µM | GI50 [56] 0.703 µM | GI50 [57] 6.85 µM
> 100 µM: TGI [1] | TGI [4] | TGI [5] | TGI [6] | TGI [7] | TGI [8] | TGI [12] | TGI [13] | TGI [14] | TGI [15] | TGI [18] | TGI [23] | TGI [29] | TGI [30] | TGI [31] | TGI [33] | TGI [34] | TGI [35] | TGI [36] | TGI [37] | TGI [38] | TGI [39] | TGI [40] | TGI [42] | TGI [48] | TGI [49] | TGI [50] | TGI [52] | TGI [53] | TGI [54] | TGI [56]
38.4 µM: TGI [45]
96.9 µM: TGI [55]
1.65 µM: TGI [24]
> 95.5 µM: TGI [22]
18.1 µM: TGI [47]
99.5 µM: TGI [11]
39.4 µM: TGI [19]
> 49.3 µM: TGI [43]
25.6 µM: TGI [26]
56.4 µM: TGI [21]
28.4 µM: TGI [25]
> 68 µM: TGI [51]
> 41.9 µM: TGI [16]
> 67.1 µM: TGI [41]
> 88.1 µM: TGI [3]
37.6 µM: TGI [44]
66.8 µM: TGI [46]
> 46.6 µM: TGI [17]
44.8 µM: TGI [28]
50.2 µM: TGI [2]
50.8 µM: TGI [20]
> 79.4 µM: TGI [57]
